# Values quoted from earlier work, collected in patent publication US8109064B2, “Methods and systems for contact lens sterilization” (Menicon Signapore Pte Ltd., priority 2006, dated 2012).
# Conditions: in vivo
substance,measurement,value
polyhexamine biguanide [PHMB],corneal staining,implicated in corneal staining
